In patent US20240261418A1, “SOS1 DEGRADING AGENT AND PREPARATION METHOD THEREFOR AND APPLICATION THEREOF” (SHANGHAI LEADINGTAC PHARMACEUTICAL CO. LTD., priority 2021, published 2024):

Target: T1, SOS1 protein (Homo sapiens, UniProt Q07889)
T1 sequence (Q07889 1-1333): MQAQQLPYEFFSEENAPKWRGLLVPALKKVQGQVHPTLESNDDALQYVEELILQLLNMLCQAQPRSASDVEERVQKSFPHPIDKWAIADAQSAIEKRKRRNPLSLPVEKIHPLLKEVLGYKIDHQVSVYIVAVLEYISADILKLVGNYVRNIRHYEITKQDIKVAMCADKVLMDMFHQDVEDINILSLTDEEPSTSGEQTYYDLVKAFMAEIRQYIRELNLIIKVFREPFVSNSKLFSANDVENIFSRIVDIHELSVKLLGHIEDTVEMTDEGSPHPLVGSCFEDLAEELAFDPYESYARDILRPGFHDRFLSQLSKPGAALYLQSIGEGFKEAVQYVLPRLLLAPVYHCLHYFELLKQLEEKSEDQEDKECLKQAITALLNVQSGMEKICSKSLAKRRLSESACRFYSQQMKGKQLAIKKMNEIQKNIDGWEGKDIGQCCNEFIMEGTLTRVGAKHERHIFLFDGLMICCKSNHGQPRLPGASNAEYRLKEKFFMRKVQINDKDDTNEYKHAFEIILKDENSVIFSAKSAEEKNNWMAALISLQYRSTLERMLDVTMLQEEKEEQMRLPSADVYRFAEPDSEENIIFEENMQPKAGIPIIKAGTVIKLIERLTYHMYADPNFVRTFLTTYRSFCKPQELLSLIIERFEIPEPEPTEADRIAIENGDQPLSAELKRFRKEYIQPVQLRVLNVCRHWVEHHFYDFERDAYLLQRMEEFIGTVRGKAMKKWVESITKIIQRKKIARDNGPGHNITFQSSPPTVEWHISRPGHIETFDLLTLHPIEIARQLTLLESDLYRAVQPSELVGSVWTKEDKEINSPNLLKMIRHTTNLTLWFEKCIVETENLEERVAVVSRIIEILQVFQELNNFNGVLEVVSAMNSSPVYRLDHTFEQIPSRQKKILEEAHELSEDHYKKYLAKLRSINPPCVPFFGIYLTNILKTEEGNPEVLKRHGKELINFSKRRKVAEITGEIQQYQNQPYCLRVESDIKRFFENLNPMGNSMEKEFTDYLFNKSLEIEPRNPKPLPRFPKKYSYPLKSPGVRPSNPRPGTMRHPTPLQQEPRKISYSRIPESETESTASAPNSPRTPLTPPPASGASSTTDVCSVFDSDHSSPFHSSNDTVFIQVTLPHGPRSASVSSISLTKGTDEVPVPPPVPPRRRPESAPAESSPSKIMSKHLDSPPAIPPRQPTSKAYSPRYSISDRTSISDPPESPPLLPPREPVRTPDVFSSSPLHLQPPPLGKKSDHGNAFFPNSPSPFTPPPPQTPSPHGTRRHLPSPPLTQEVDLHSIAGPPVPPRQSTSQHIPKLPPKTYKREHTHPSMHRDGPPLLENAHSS
Assay: SOS1 degradation assay (Western blot) in SW-620 cells
Type: cell-based
Set-up: host or cells: NCI-H358, A-427, SW-620, DLD-1 (human cancer cell lines)
Conditions: SW-620 (KRAS G12V), 24 h; for DC50: read-out: SW620 (G12V) DC50; for Dmax: read-out: SW620 (G12V) Dmax
Procedure: Test Example 2: SOS1 Degradation Assay
The degradation of SOS1 by the compounds was investigated on KRAS G12C mutant human non-small cell lung cancer cells NCI-H358 (ATCC or Stem Cell Bank, Chinese Academy of Sciences), KRAS G12D mutant human lung cancer cells A-427 (ATCC), KRAS G12V mutant human colorectal adenocarcinoma cells SW-620 (ATCC), and KRAS G13D mutant human colorectal adenocarcinoma epithelial cells DLD-1 (ATCC). The specific procedures were as follows:
0.95 mL of cells were seeded into each well of a 24-well cell culture plate to achieve a cell density of 5×10^5 cells/well; the cell plate was incubated in an incubator at 37° C. with 5% CO2 overnight. Then 50 μL of the compound solution after dilution was added to each of the wells with the corresponding cells, so that the final concentration of the compound was in a range of 0.03-3000 nM. The final concentration of DMSO was 0.25%.
After dosing, the cell plate was incubated in an incubator at 37° C. with 5% CO2 for 24 h. The cell culture medium in the 24-well plate was removed, and the plate was washed twice with 1×PBS. 180 μL of RIPA (strong) lysis buffer (Beyotime, P0013B) supplemented with 1 mM phenylmethylsulfonyl fluoride, a protease inhibitor mixture (Beyotime, P1008), and a protease phosphatase inhibitor mixture (Beyotime, P1045) was added to lyse adherent NCI-H358 cells at the bottom of the cell culture plate. After the plate was left to stand on ice for 30 min, the protein lysate in each well was transferred to a 1.5 mL centrifuge tube and centrifuged at 15000 g for 20 min at 4° C. […] The concentration of total protein in the cell lysate supernatant was determined using the BCA Protein Quantification Kit (Tiangen, PA115-02). […]
The concentration of total protein in the cell lysate was determined by BCA. […] After the blocking, the PVDF membrane was incubated with an SOS1 primary antibody (Abcam, ab140621) at 4° C. overnight, washed with a TBST buffer (2.4 g of Tris, 8.8 g of NaCl, 1.5 mL of Tween 20, with pH adjusted to 7.4, with the volume brought to 1 L) for 30 min (10 min/time), incubated with a secondary antibody (Abcam, ab205718) at room temperature for 2 h, washed with a TBST buffer for 30 min (10 min/time), and finally incubated with Clarity Western ECL Substrate (BIO-RAD, 170-5061) for 5 min for luminescence and color development, and a chemiluminescence imaging system (Clinx, ChemiScope 6200 Touch) was used for color development and protein mapping. […] The gray correction value for each sample was calculated by the formula: gray correction value=(gray value of target protein/gray value of corresponding internal reference)×103. Then the degradation rate was calculated by comparing the gray correction value with the gray correction value of the control group. […]

Compound	DC50	Dmax
COc1cc2nc(C)nc(N[C@H](C)c3cc(-c4c(Cl)cccc4CN(C)C)cs3)c2cc1[C@H]1CC[C@H](C(=O)N2CCN(CC3CCC4(CC3)CCN(C(=O)c3ccc(Cl)c(N5CCC(=O)NC5=O)c3)CC4)CC2)CC1 [Example 1, 1-(2-chloro-5-(9-((4-((1R,4R)-4-(4-(((R)-1-(4-(2-chloro-6-((dimethylamino)methyl)phenyl)thien-2-yl)ethyl)amino)-7-methoxy-2-methylquinazolin-6-yl)cyclohexane-1-carbonyl)piperazin-1-yl)methyl)-3-azaspiro[5.5]undecane-3-carbonyl)phenyl)dihydropyrimidine-2,4(1H,3H)-dione]	≤ 50 nM	80 to 100%
COc1cc2nc(C)nc(N[C@H](C)c3cc(-c4c(Cl)cccc4CN(C)C)cs3)c2cc1[C@H]1CC[C@H](C(=O)N2CCC(CCOCC3CCN(C(=O)c4ccc(Cl)c(N5CCC(=O)NC5=O)c4)CC3)CC2)CC1 [Example 5, 1-(2-chloro-5-(4-((2-(1-((1R,4R)-4-(4-(((R)-1-(4-(2-chloro-6-((dimethylamino)methyl)phenyl)thien-2-yl)ethyl)amino)-7-methoxy-2-methylquinazolin-6-yl)cyclohexane-1-carbonyl)piperidin-4-yl)ethoxy)methyl)piperidine-1-carbonyl)phenyl)dihydropyrimidine-2,4(1H,3H)-dione]	≤ 50 nM	80 to 100%
